Experimental data reported in PubChem BioAssay AID1259407 (Chemical Carcinogenesis Research Information System (CCRIS), 2018).
Active and inactive are the calls of the source. No rule for the calls is given here.

Tested on: CCRIS mutagenicity, Ames/micronucleus/aberration tests
Test: CCRIS mutagenicity studies

Which results are given for `COc1cc(CNC(=O)CCCC/C=C/C(C)C)ccc1O`?
mutagenic call (Test System: AMES SALMONELLA TYPHIMURIUM, Strain/Indicator: TA1535, Metabolic Activation: NONE, Method: DIRECT PLATE): inactive; negative; mutagenic call (Test System: AMES SALMONELLA TYPHIMURIUM, Strain/Indicator: TA1535, Metabolic Activation: NONE, Method: PREINCUBATION): inactive; negative; mutagenic call (Test System: AMES SALMONELLA TYPHIMURIUM, Strain/Indicator: TA1535, Metabolic Activation: RAT LIVER S-9, AROCLOR 1254, Method: PREINCUBATION): inactive; negative; mutagenic call (Test System: AMES SALMONELLA TYPHIMURIUM, Strain/Indicator: TA1535, Metabolic Activation: RAT LIVER S-9, AROCLOR 1254, Method: STANDARD PLATE): inactive; negative; mutagenic call (Test System: AMES SALMONELLA TYPHIMURIUM, Strain/Indicator: TA1535, Metabolic Activation: RAT, LIVER, S-9, AROCLOR 1254, Method: DIRECT PLATE): inactive; negative; mutagenic call (Test System: AMES SALMONELLA TYPHIMURIUM, Strain/Indicator: TA1535, Metabolic Activation: RAT, LIVER, S-9, AROCLOR 1254, Method: PREINCUBATION): inactive; negative; mutagenic call (Test System: AMES SALMONELLA TYPHIMURIUM, Strain/Indicator: TA1537, Metabolic Activation: HAMSTER, LIVER, S-9, AROCLOR 1254, Method: STANDARD PLATE): inactive; negative; mutagenic call (Test System: AMES SALMONELLA TYPHIMURIUM, Strain/Indicator: TA1537, Metabolic Activation: NONE, Method: DIRECT PLATE): inactive; negative; mutagenic call (Test System: AMES SALMONELLA TYPHIMURIUM, Strain/Indicator: TA1537, Metabolic Activation: NONE, Method: PREINCUBATION): inactive; negative; mutagenic call (Test System: AMES SALMONELLA TYPHIMURIUM, Strain/Indicator: TA1537, Metabolic Activation: NONE, Method: STANDARD PLATE): inactive; negative; mutagenic call (Test System: AMES SALMONELLA TYPHIMURIUM, Strain/Indicator: TA1537, Metabolic Activation: RAT LIVER S-9, AROCLOR 1254, Method: PREINCUBATION): inactive; negative; mutagenic call (Test System: AMES SALMONELLA TYPHIMURIUM, Strain/Indicator: TA1537, Metabolic Activation: RAT LIVER S-9, AROCLOR 1254, Method: STANDARD PLATE): inactive; negative; mutagenic call (Test System: AMES SALMONELLA TYPHIMURIUM, Strain/Indicator: TA1537, Metabolic Activation: RAT, LIVER, S-9, AROCLOR 1254, Method: DIRECT PLATE): inactive; negative; mutagenic call (Test System: AMES SALMONELLA TYPHIMURIUM, Strain/Indicator: TA1537, Metabolic Activation: RAT, LIVER, S-9, AROCLOR 1254, Method: PREINCUBATION): inactive; negative; mutagenic call (Test System: AMES SALMONELLA TYPHIMURIUM, Strain/Indicator: TA1537, Metabolic Activation: RAT, LIVER, S-9, AROCLOR 1254, Method: STANDARD PLATE): inactive; negative; mutagenic call (Test System: AMES SALMONELLA TYPHIMURIUM, Strain/Indicator: TA1538, Metabolic Activation: HAMSTER, LIVER, S-9, AROCLOR 1254, Method: STANDARD PLATE): inactive; negative; mutagenic call (Test System: AMES SALMONELLA TYPHIMURIUM, Strain/Indicator: TA1538, Metabolic Activation: NONE, Method: STANDARD PLATE): inactive; negative; mutagenic call (Test System: AMES SALMONELLA TYPHIMURIUM, Strain/Indicator: TA1538, Metabolic Activation: RAT, LIVER, S-9, AROCLOR 1254, Method: STANDARD PLATE): inactive; negative; mutagenic call (Test System: CHINESE HAMSTER V-79, Strain/Indicator: V-79/8-AZAGUANINE, Metabolic Activation: NONE): inactive; negative; mutagenic call (Test System: CHINESE HAMSTER V-79, Strain/Indicator: V-79/8-AZAGUANINE, Metabolic Activation: RAT, LIVER, S-9, AROCLOR): inactive; negative; mutagenic call (Test System: E. COLI, Strain/Indicator: WP2UVRA, Metabolic Activation: NONE, Method: PREINCUBATION): inactive; negative; mutagenic call (Test System: E. COLI, Strain/Indicator: WP2UVRA, Metabolic Activation: NONE, Method: STANDARD PLATE): inactive; negative; mutagenic call (Test System: E. COLI, Strain/Indicator: WP2UVRA, Metabolic Activation: RAT LIVER S-9, AROCLOR 1254, Method: PREINCUBATION): inactive; negative; mutagenic call (Test System: E. COLI, Strain/Indicator: WP2UVRA, Metabolic Activation: RAT LIVER S-9, AROCLOR 1254, Method: STANDARD PLATE): inactive; negative; mutagenic call (Test System: E. COLI, Strain/Indicator: WP2UVRA, Metabolic Activation: RAT, LIVER, S-9, AROCLOR 1254, Method: DIRECT PLATE): inactive; negative; mutagenic call (Test System: E. COLI, Strain/Indicator: WP2UVRA, Metabolic Activation: RAT, LIVER, S-9, AROCLOR 1254, Method: PREINCUBATION): inactive; negative; mutagenic call (Test System: E.COLI, Strain/Indicator: WP2UVRA, Metabolic Activation: NONE, Method: DIRECT PLATE): inactive; negative; mutagenic call (Test System: MOUSE LYMPHOMA, Strain/Indicator: L5178Y (TK+/TK-), Metabolic Activation: RAT, LIVER, S-9, AROCLOR 1254, Method: SUSPENSION/PLATE): active; positive; mutagenic call (Test System: MOUSE LYMPHOMA, Strain/Indicator: L5178Y(TK+/-), Metabolic Activation: NONE, Method: SUSPENSION/PLATE (4 H EXPOSURE)): active; positive; mutagenic call (Test System: MOUSE LYMPHOMA, Strain/Indicator: L5178Y(TK+/-), Metabolic Activation: NONE, Method: SUSPENSION/PLATE (24 H EXPOSURE)): inactive; negative; mutagenic call (Test System: MOUSE LYMPHOMA, Strain/Indicator: L5178Y(TK+/-), Metabolic Activation: RAT LIVER S-9, AROCLOR 1254, Method: SUSPENSION/PLATE): active; positive
